Assay results from ChEMBL document CHEMBL5576071, “Structure optimization of Cmpd-15 as negative allosteric modulators for the β2-adrenergic receptor” (Bioorg Med Chem, 2024).

Key:
[1] = molecular target: Beta-2 adrenergic receptor (Homo sapiens) (UniProt P07550); assay: Negative allosteric modulation of beta-2 adrenergic receptor (unknown origin) transfected in HEK293 cells assessed as decrease in cAMP accumulation at 50 uM preincubated for 20 mins followed by ISO treatment for 5 mins for by Glo sensor assay relative to 4-((2S)-3-(((S)-3-(3-bromophenyl)-1-(methylamino)-1-oxopropan-2-yl)amino)-2-(2-cyclohexyl-2-phenylacetamido)-3-oxopropyl)benzamide; type: functional, cell-based; conditions: filed as negative allosteric modulator, time 25.0 min
[2] = molecular target: Beta-2 adrenergic receptor (Homo sapiens) (UniProt P07550); assay: Potency index, ratio of 4-((2S)-3-(((S)-3-(3-bromophenyl)-1-(methylamino)-1-oxopropan-2-yl)amino)-2-(2-cyclohexyl-2-phenylacetamido)-3-oxopropyl)benzamide Imax to test compound Imax for negative allosteric modulation of beta-2 adrenergic receptor (unknown origin) transfected in HEK293 cells assessed as decrease in cAMP accumulation at 50 uM preincubated for 20 mins followed by ISO treatment for 5 mins for by Glo sensor assay; type: functional, cell-based; conditions: filed as negative allosteric modulator, time 25.0 min
[3] = Metabolic stability in mouse liver microsomes assessed as hepatic extraction ratio at 1 uM preincubated for 5 mins followed by NADPH addition measured for 5 to 60 mins by LC-MS/MS analysis; type: ADME, Microsome; conditions: time 10-65 min, read-out: ERH
[4] = Metabolic stability in human liver microsomes assessed as hepatic extraction ratio at 1 uM preincubated for 5 mins followed by NADPH addition measured for 5 to 60 mins by LC-MS/MS analysis; type: ADME, Microsome; conditions: time 10-65 min, read-out: ERH
[5] = Metabolic stability in human liver microsomes assessed as half life at 1 uM preincubated for 5 mins followed by NADPH addition measured for 5 to 60 mins by LC-MS/MS analysis; type: ADME, Microsome; conditions: time 10-65 min
[6] = Metabolic stability in mouse liver microsomes assessed as half life at 1 uM preincubated for 5 mins followed by NADPH addition measured for 5 to 60 mins by LC-MS/MS analysis; type: ADME, Microsome; conditions: time 10-65 min

Chain of Beta-2 adrenergic receptor (Homo sapiens) (P07550 whole entry, looked up): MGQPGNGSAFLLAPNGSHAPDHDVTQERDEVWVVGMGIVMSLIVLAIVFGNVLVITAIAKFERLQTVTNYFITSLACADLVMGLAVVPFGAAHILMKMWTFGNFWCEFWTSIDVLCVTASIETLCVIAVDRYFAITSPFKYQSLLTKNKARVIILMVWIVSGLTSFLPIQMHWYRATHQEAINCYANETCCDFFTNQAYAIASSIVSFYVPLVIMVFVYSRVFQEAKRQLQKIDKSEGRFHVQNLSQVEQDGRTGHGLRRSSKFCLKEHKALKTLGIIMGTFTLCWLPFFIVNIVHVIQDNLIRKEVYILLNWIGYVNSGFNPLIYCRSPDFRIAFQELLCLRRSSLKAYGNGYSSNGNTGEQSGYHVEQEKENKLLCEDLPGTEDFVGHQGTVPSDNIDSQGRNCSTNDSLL

SMILES | Imax [1] [%] | Ratio [2] | hepatic extraction ratio at 1 µM [3] | hepatic extraction ratio at 1 µM [4] | half-life at 1 µM [5] [min] | half-life at 1 µM [6] [min]
CNC(=O)[C@H](Cc1cccc(Br)c1)NC(=O)c1cc(-c2cccc(Br)c2)nn1Cc1cccc(Br)c1 | 100 | 1 |  |  |  | 
CNC(=O)[C@H](Cc1cccc(Br)c1)NC(=O)c1cc(-c2ccccc2Br)nn1Cc1cccc(Br)c1 | 91 | 0.91 |  |  |  | 
CNC(=O)[C@H](Cc1cccc(Br)c1)NC(=O)c1cc(-c2ccccc2)nn1Cc1ccccc1F | 143 | 1.43 | 0.721 | 0.835 | 41.5 | 58.7
CNC(=O)[C@H](Cc1cccc(Br)c1)NC(=O)c1cc(-c2ccccc2)nn1Cc1ccc(C#N)cc1 | 100 | 1 |  |  |  | 
CNC(=O)[C@H](Cc1cccc(Br)c1)NC(=O)c1cc(-c2ccccc2)nn1Cc1ccccc1C#N | 67 | 0.67 |  |  |  | 
CNC(=O)[C@H](Cc1cccc(Br)c1)NC(=O)c1cc(-c2cccc(Cl)c2)nn1Cc1cccc(Br)c1 | 127 | 1.27 |  |  |  | 
CNC(=O)[C@H](Cc1cccc(Br)c1)NC(=O)c1cc(-c2ccccc2)nn1Cc1cccc(F)c1 | 133 | 1.33 |  |  |  | 
CNC(=O)[C@H](Cc1cccc(Br)c1)NC(=O)c1cc(-c2ccc(Br)cc2)nn1Cc1cccc(Br)c1 | 109 | 1.09 |  |  |  | 
CNC(=O)[C@H](Cc1cccc(Br)c1)NC(=O)c1cc(-c2ccccc2)nn1Cc1ccccc1Cl | 114 | 1.14 |  |  |  | 
CNC(=O)[C@H](Cc1cccc(Br)c1)NC(=O)c1cc(-c2ccccc2)nn1Cc1ccc(Cl)cc1 | 114 | 1.14 |  |  |  | 
CNC(=O)[C@H](Cc1cccc(Br)c1)NC(=O)c1cc(-c2ccc(F)cc2)nn1Cc1cccc(Br)c1 | 130 | 1.3 |  |  |  | 
CNC(=O)[C@H](Cc1cccc(Br)c1)NC(=O)c1cc(-c2ccccc2)nn1Cc1ccc(F)cc1 | 114 | 1.14 |  |  |  | 
CNC(=O)[C@H](Cc1cccc(Br)c1)NC(=O)c1cc(-c2ccccc2)nn1Cc1cccc(Cl)c1 | 114 | 1.14 |  |  |  | 
CNC(=O)[C@H](Cc1cccc(Br)c1)NC(=O)c1cc(-c2ccccc2)nn1Cc1cccc(I)c1 | 125 | 1.25 |  |  |  | 
CNC(=O)[C@H](Cc1cccc(Br)c1)NC(=O)c1cc(-c2ccccc2Cl)nn1Cc1cccc(Br)c1 | 118 | 1.18 |  |  |  | 
CNC(=O)[C@H](Cc1cccc(Br)c1)NC(=O)c1cc(-c2ccccc2[N+](=O)[O-])nn1Cc1cccc(Br)c1 | 120 | 1.2 |  |  |  | 
CNC(=O)[C@H](Cc1cccc(Br)c1)NC(=O)[C@H](Cc1ccc(C(N)=O)cc1)NC(=O)C(c1ccccc1)C1CCCCC1 (stereo not given in full) |  |  | 0.986 | 0.993 | 1.53 | 2.19
